Data taken from PMC5175178, “Development of an in-vivo active reversible butyrylcholinesterase inhibitor” (Scientific Reports, 2016).
Like-named read-outs stand apart in the source and are kept apart here.

What was measured:
[1] = test system: mice; assay: Observation of acute cholinergic adverse effects; assay type: in vivo; settings: even at 100 mg kg^−1
[2] = test system: HepG2 cells; assay: Cytotoxicity in HepG2 cells, MTS metabolic activity assay; settings: 24 h
Procedure: (§1) After 24 h (a) or 48 h (b), the cell viability was evaluated using the MTS assay. The control group (DMSO) was considered as 100% cell viability. Data are means ±SD of at least three independent experiments, each carried out in triplicate (a) and quadruplicate (b).
HepG2 cells (1 ×10^4 cells/well) were treated for 24 h with the appropriate concentrations of the compounds of interest or the corresponding vehicle (control cells), in triplicates in 96-well plates. The metabolic activities were determined using the CellTiter 96 Aqueous One Solution Cell Proliferation Assay (Promega, WI/USA), according to the manufacturer instructions.

[3] = test system: Aβ(1–42)-induced cytotoxicity in SH-SY5Y cells; assay: Neuroprotection against Aβ(1–42)-induced cytotoxicity, PI flow cytometry; assay type: cell-based, human; settings: 10 μM, 5 μM Aβ(1–42), 48 h
Procedure: Neurotoxicity induced by Aβ species (mainly Aβ(1–42)) is a contributor to the pathogenesis of neurodegeneration in AD[41]. […]. […] […].
Supplementary Figure 8. […]. […].
[…]; Sigma, St. Louis, MO, USA). […] SH-SY5Y cells were seeded into a 24-well culture plate (1.2 ×10^5/well) and next day, treated as described above. After 48 h treatment, cells were washed with pre-warmed PBS and further stained with PI solution (30 µM) for 15 min at 37 °C. Cells were then analyzed for cytotoxicity by flow cytometry on FACS Calibur (BD Bioscience, San Jose, CA, USA). The percentage of PI positive cells (PI^pos) was evaluated using FlowJo software (Ashland, OR, USA) and results are presented as a relative fold increase of PI^pos corresponding vehicle treatment (DMSO control).

[4] = test system: SH-SY5Y cells; assay: Cytotoxicity in SH-SY5Y cells, MTS cell viability assay; settings: 48 h
Procedure: Prior to cell treatments, complete medium was replaced with reduced-serum medium (i.e., with 2% fetal bovine serum).
as §1
The cells were treated as described above, and cell viability was assessed after 48 h using the CellTiter 96 Aqueous One Solution Cell Proliferation Assay (Promega, Madison, WI, USA), according to the manufacturer instructions. […] The data are presented as percentages of the control (DMSO).

[5] = target: T1, Aβ1–42 aggregation (Homo sapiens, UniProt P05067); assay: Aβ1–42 aggregation inhibition, dot-blot assay; assay type: biochemical; settings: 10 μM compound
T1 construct: Recombinant human HFIP-pretreated Aβ1–42 peptide (Merck Millipore, Darmstadt, Germany); purchased Merck Millipore, Darmstadt, Germany
T1 sequence (P05067 672-713): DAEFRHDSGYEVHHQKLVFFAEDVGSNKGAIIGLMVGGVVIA
Procedure: Recombinant human HFIP-pretreated Aβ1–42 peptide (Merck Millipore, Darmstadt, Germany) was dissolved in DMSO to give 100 μM stock solution. Prior to the incubations, the Aβ1–42 peptide stock solution was diluted in HEPES buffered solution (150 mM HEPES, pH 7.4, 150 mM NaCl) to give 10 μM Aβ1–42. […]; 10 μM final concentration), and added to the black-walled 96-well plates in quadruplicate, and diluted with HEPES buffered solution to a final volume of 100 μL. To determine the blank value (b), 1% DMSO in HEPES buffered solution replaced the Aβ1–42 peptide solution. The sealed 96-well plate was placed in an incubator at 37 °C with continuous shaking, for 24 h. Then 10 μL from each well were spotted on nitrocellulose membrane. The membrane was dried and blocked with 5% non-fat milk in TBST (50 mM Tris, pH 7.4, 150 mM NaCl, 0.1% Tween 20) at room temperature for 30 min, washed with TBST, and probed with the LOC anti-amyloid fibrils antibody (Millipore, 1:10,000, in 2% non-fat milk-TBST) or the OC anti-amyloid fibrils antibody (Millipore, 1:10,000, in 2% non-fat milk-TBST), for 1 h. […] The blots were developed with Pierce ECL Western Blotting Substrate (Thermo Scientific) for 2 min, detected with a Bio-Rad ChemiDoc MP Imaging System, and further analyzed with Image Lab software (Bio-Rad). Inhibition of the Aβ1–42 aggregation was quantified using equation: […]

[6] = test system: mice; assay: Rotarod test, motor coordination; settings: for Time spent on the rotarod (s ±SEM) 6 rpm / Time spent on the rotarod (s ±SEM) 18 rpm / Time spent on the rotarod (s ±SEM) 24 rpm: 60 min
Procedure: The mice had free access to food and water, and the ambient temperature and humidity of the room were kept constant throughout all of the tests. For the behavioral tasks, the mice were selected at random, and each group consisted of 8 to 10 mice dose^−1. The experiments were performed between 08:00 and 14:00. Immediately after these in-vivo assays, the animals were euthanized by cervical dislocation. […] All efforts were made to minimize the number of mice used and their suffering.
Before the test, the mice were trained for three consecutive days on the rotarod apparatus (Rotarod apparatus, May Commat RR0711, Turkey; rod diameter, 2 cm) that was rotating at a fixed speed of 18 rotations per minute (rpm). In each training session, the mice were put on the rotating rod for 3 min, with an unlimited number of trials. The correct experimentation was performed 24 h after the last training session. […] Motor impairments were defined as the inability to remain on the rotarod apparatus for 1 min, and were expressed as the mean time spent on the rotarod^36.

[7] = test system: scopolamine-induced memory impairment in mice; assay: Two-day radial arm water maze task, scopolamine-induced memory impairment; assay type: in vivo, C57BL/6J mice
Procedure: In this task incorrect arm entries (i.e., errors) are counted. […] The mice had free access to food and water, and the ambient temperature and humidity of the room were kept constant throughout all of the tests. For the behavioral tasks, the mice were selected at random, and each group consisted of 8 to 10 mice dose^−1. The experiments were performed between 08:00 and 14:00. Immediately after these in-vivo assays, the animals were euthanized by cervical dislocation. […] All efforts were made to minimize the number of mice used and their suffering.
C57BL/6J mice were subjected to the radial arm water maze paradigm^34,35. The main part of the apparatus (Panlab Harvard Apparatus, Spain) consists of a 6-arm maze in a pool filled with water to approximately 10 cm from the top, to be high enough to cover the hidden platform by about 0.5 cm, but also low enough that the visible platform was not covered. The pool was regularly cleaned of any debris left by the mice. The temperature of the water was kept constant during testing (23 ±1 °C). The tester remained in the same position throughout the testing, thus providing an additional visual cue for the mice.
On day 1, 15 trials were run in five blocks of three. Each trial lasted up to 60 s. The start arm was varied for each trial, with the goal arm remaining constant for a given individual for both days^34,35. For the first 12 trials, the platform was alternately visible, then hidden, and then hidden for the last three trials. On day 2, the mice (without drug treatment on this day) were run in the same manner as on day 1, but the platform was hidden for all of the trials. As errors have been reported to be the most sensitive measure in this assay^34, the number of errors (i.e., incorrect arm entries made) was counted in a 60 s time-frame. Incorrect arm entries occurred when the mouse selected an arm that was not the goal arm. Entries into the goal arm were not counted as errors, even if the platform was not located. An entry was considered to occur when all four legs of the mice had entered the alley completely. […] If the platform was not located within 60 s, the mice were gently guided through the water by placing a hand behind the animal to direct its swimming direction toward the platform. […] After that, the mouse was gently removed from the platform and thoroughly dried using cellulose paper before placing it back into its home cage under a heat source (a heat lamp).
For the statistical analysis of the data obtained, to minimize the impact of individual trial variability, each mouse error for the finding of the platform for three consecutive trials were averaged, giving five data points (5 trial blocks): T1 (trials 1–3), T2 (trials 4–6), T3 (trials 7–9), T4 (trials 10–12) and T5 (trials 13–15), separately for each day of testing.

[8] = Caco-2 monolayer bidirectional permeability assay; settings: human, Caco-2, Papp(A–B), apical-to-basolateral, 100 µM donor
Procedure: They were grown on Transwell® culture inserts with a polycarbonate membrane (diameter, 12 mm; pore size, 0.4 µm). 50,000 cells/filter membranes were used for seeding and the medium was changed every two days. At day 18, transepithelial electrical resistance (TEER) was measured for each filter with Caco-2 cell monolayers. […] The samples were acidified by dilution with the same volume of 0.01M HCl before fluorescence measurements.
Ringer buffer with 10 mM d-glucose or 10 mM mannitol on apical and basolateral side of the tissue, respectively, was used as an incubation saline. […] The stock solutions were added either to the apical or to the basolateral compartment to obtain bidirectional permeability measurements. Six samples were withdrawn in 20 min intervals. Each time 300 µl was taken from the 1500 µL basolateral acceptor compartment and 100 µL from the 500 µL apical acceptor compartment. These volumes were immediately replaced by the appropriate fresh incubation saline. […] All apparent permeability coefficients were calculated as described previously^24.

[9] = test system: cryopreserved human hepatocytes; assay: Metabolite identification in cryopreserved human hepatocytes, LC-HRMS; settings: 2 h with human cryopreserved hepatocytes
Procedure: The plasma metabolic stability and hepatic clearance were estimated by the substrate depletion method. Qualitative aspect of metabolic degradation was performed by metabolite identification using LC-high resolution mass spectrometry (HRMS). […] Principal Phase I (oxidative) and Phase II (conjugative) metabolites have been detected and characterized following previously described preocedure^27. […] Samples were taken at time 0 and the end of the incubation (2 h), respectively. A control sample (no test compound added) was also prepared and incubated for the same period of time. After the reaction was stopped by addition of acetonitrile, the supernatants were subjected to HPLC-MS analysis. Separation of analytes was achieved using Acquity HSS T3 column (100 × 2.1 mm, 1.8 µ, Waters). The sample solutions-supernatants (5 µL) were injected and eluted at a flow rate of 0.5 mL min^–1, using a linear gradient of mobile phase A (0.1% formic acid in water) and mobile phase B (0.1% formic acid in MeCN). […] Retention times and the respective MS and MS/MS spectra of the species detected in the incubated sample and not in time-zero or blank sample were identified and recorded.

[10] = in vitro; assay type: in vitro ADME; set-up: protein bound: dose or concentration left out as unconfirmed; settings: for recovery at 4 h, 10 µM: human, pH 7.4, human plasma protein binding assay
Procedure: The experiment was accepted in accordance with Eurofins validation Standard Operating Procedure.
The equilibrium dialysis technique was used to separate the fraction of the bound to human plasma protein. The assay was performed in a 96-well format in a dialysis block constructed from Teflon to minimize the unspecific binding^25. Plasma from human was used as the default protein containing matrix. […] The dialysate compartment was loaded with the phosphate buffered saline (PBS, pH 7.4), and the sample side was loaded with equal volume of the spiked protein matrix. The dialysis plate was then sealed and incubated at 37 °C for 4 h. A control sample (n = 2) was prepared from the spiked protein matrix in the same manner as the assay sample (without dialysis). The control sample served as the basis for the recovery determination. After the incubation, samples were taken from each compartment, diluted with phosphate buffer followed by addition of acetonitrile and centrifugation. The supernatants were then used for HPLC-MS/MS analysis using selected reaction monitoring. The HPLC conditions consisted of a binary LC pump with autosampler, a C18 column (2 × 20 mm), and gradient elution.
Protein binding (%) = (Areap-Areab) / Areap ×100 (3),
Recovery (%) = (Areap-Areab) / Areac ×100 (4),
The recovery determination serves as an indicator of reliability of the calculated protein binding value. Low recovery would indicate that the test compound is lost during the course of the assay, most likely due to non-specific binding or degradation.

[11] = test system: scopolamine-induced memory impairment in mice; assay: Morris water maze task, scopolamine-induced memory impairment
Procedure: In this task the time taken to reach the hidden platform (i.e., the escape latency time), the distance travelled, and the mean speed of swimming are recorded for each experimental group. […] For the behavioral tasks, the mice were selected at random, and each group consisted of 8 to 10 mice dose^−1. The experiments were performed between 08:00 and 14:00. Immediately after these in-vivo assays, the animals were euthanized by cervical dislocation. […] All efforts were made to minimize the number of mice used and their suffering.
The Morris water maze is a circular, plastic, grey-painted pool (diameter, 120 cm; height, 60 cm), filled with water (up to about 48 cm below the edge, to prevent an animal from jumping out) that was maintained at 23 ±1 °C. The pool was divided into four equal quadrants (compass locations: NE, NW, SE, SW) by a computerized video tracking system (SMART, ver. 3.0; Panlab, Spain). An escape platform (diameter, 11 cm; height, 47 cm) at a fixed location (the center of the NW quadrant; i.e., the target quadrant). The escape platform was made of transparent Plexiglas and was immersed 1 cm under the surface of water; this was invisible to the swimming mouse. The maze was lighted with the intensity of 45 lx.
During the spatial acquisition trial (six consecutive days), the mice were assigned to training sessions (four training sessions a day; 4 h apart) in which the mice were trained to escape from the water by reaching the hidden platform, the location of which could be identified using distal extra-maze cues (A4-sized sheets of black laminated paper with colored geometric symbols) attached to the room walls to provide navigation points^31. Visual cues had different colors and dimensions, and were kept constant during the whole experiment^31,32. The whole experiment was conducted by an experimenter who remained always stationary in a constant location, thus serving as an additional distal cue for the swimming mice. […] The time taken to reach the hidden platform (escape latency time), distance travelled to reach the platform, and mean speed were recorded in each experimental group and analyzed.
On the seventh day (24 h after the last training) the platform was removed from the pool and a probe trial was performed (without drug treatment). Each animal was released from a different start point and was allowed to swim for 60 s. […] Latency time to the first crossing of the former platform location (target zone), number of crossings of the target zone, time spent in the target NW quadrant, total distance, distance spent in NW quadrant, entries into the NW quadrant, and mean speed were measured^31.

[12] = Human plasma stability
Procedure: (§2) The plasma metabolic stability and hepatic clearance were estimated by the substrate depletion method.
(§3) The incubation was performed in a 37 °C water bath for 2 h. An aliquot of the incubation mixture was transferred to acetonitrile at 0, 0.5, 1, 1.5 and 2 h, respectively. Samples were then mixed and centrifuged. Supernatants were used for HPLC-MS/MS analysis using selected reaction monitoring, and peak areas were recorded for each analyte. The HPLC conditions consisted of a binary LC pump with autosampler, a C18 column (2 × 20 mm), and gradient elution. The area of precursor compound remaining after each time points relative to the amount remaining at time zero, expressed as percent, is calculated. Subsequently, the half-life (t1/2) was estimated from the slope of the initial linear range of the logarithmic curve of the compound remaining (%) versus time, assuming first order kinetics.

[13] = target: T1, Aβ1–42 aggregation; assay: Aβ1–42 aggregation inhibition, thioflavin-T fluorometric assay; assay type: biochemical
Procedure: Recombinant human HFIP-pretreated Aβ1–42 peptide (Merck Millipore, Darmstadt, Germany) was dissolved in DMSO to give 75 μM stock solution. […]. The ThT emission of the Aβ1–42 began to rise after 4 h, reached a plateau after 20 h, and remained almost unchanged for an additional 28 h of incubation. The fluorescence intensities at the plateau in the absence and presence of the test compound were averaged, and the average fluorescence of the corresponding wells at t= 0 h was subtracted. […]

[14] = in vitro; settings: human, plasma
Procedure: as §2, §3

[15] = test system: scopolamine-induced memory impairment in mice; assay: Passive avoidance task, scopolamine-induced memory impairment; assay type: in vivo, Albino Swiss (CD–1 Krf) mice
Procedure: The first behavioral test performed was the passive avoidance (PA) task, which allows the evaluation of the effects of a drug on fear-motivated contextual memory. […] In the passive avoidance task, better memory performance is determined according to a longer step-through latency in the retention trial (i.e., the testing phase) than in the acquisition trial (i.e., the conditioning phase). […] The mice had free access to food and water, and the ambient temperature and humidity of the room were kept constant throughout all of the tests. For the behavioral tasks, the mice were selected at random, and each group consisted of 8 to 10 mice dose^−1. The experiments were performed between 08:00 and 14:00. Immediately after these in-vivo assays, the animals were euthanized by cervical dislocation. […] All efforts were made to minimize the number of mice used and their suffering.
The effect of the test compounds on acquisition and retention in the passive avoidance task was conducted accordingly to a previously described method^30. For this purpose, the passive avoidance apparatus was used (Panlab Harvard Apparatus, Spain).
The testing phase was conducted 24 h after the acquisition phase. For the acquisition, each mouse was initially placed for 30 s in the light compartment (exploration period; guillotine gate closed). At the end of the exploration period the guillotine door between the light and the dark compartments was opened and the time elapsed before entering the black chamber was recorded. As soon as the mouse entered the dark compartment, the door automatically closed and an electrical shock (current intensity: 0.2 mA, duration: 2 s) was delivered through the grid floor.
For the retention trial (drug off), the mice were placed in the illuminated white compartment again, and the latency time between door opening and entry into the dark compartment was recorded for each mouse. […] Better memory performance was indicated by longer latency before entry into the black chamber in the test (retention) phase than in the conditioning (acquisition) phase.

[16] = in vitro; settings: both, human, hepatocytes, pH 7.3
Procedure: as §2
(§4) Cryopreserved hepatocytes (mixed gender and pool of 10 or more) were thawed, washed, and resuspended in Krebs-Heinslet buffer (pH 7.3). […] The reaction was stopped by adding acetonitrile into the incubation mixture. Samples were then mixed, transferred completely to another 96-well plate, and centrifuged. Supernatants were used for HPLC-MS/MS analysis. As reference substances, four compounds were tested in each assay. […] In the HPLC-MS/MS analysis peak areas corresponding to the test compounds were recorded. Metabolic stability, expressed as percentage of the parent compound remaining, was calculated by comparing the peak area of the compound at the time point relative to that at time 0. The half-life (t1/2) was estimated from the slope of the initial linear range of the logarithmic curve of the compound remaining (%) versus time, assuming first order kinetics. The apparent intrinsic clearance (Clint in µL/min/million cells) was calculated from the half-life according to the following formula:

[17] = test system: cryopreserved human hepatocytes; assay: Metabolic stability in cryopreserved human hepatocytes; settings: 1 µM
Procedure: as §2, §4

[18] = human plasma, 10 µM, 37 °C, 4 h
[19] = probe trial day 7, scopolamine + 30 mg kg^–1

SMILES: COCCN(CC1CCCN(Cc2ccccc2)C1)S(=O)(=O)c1ccc2ccccc2c1 (racemic) [compound 2, (±)-N-((1-benzylpiperidin-3-yl)methyl)-N-(2-methoxyethyl)naphthalene-2-sulfonamide]
- acute cholinergic adverse effects [1]: no acute cholinergic adverse effects
- LD50 HepG2 cells [2]: 58.67 µM
- neuroprotective effect on Aβ(1–42)-induced cell death [3]: reversed Aβ(1–42)-induced cell death
- LD50 SH-SY5Y cells [4]: 31.40 µM
- inhibition at 10 µM ([5]; read-out: Percent inhibition ±SEM (%) Dot blot (LOC antibody)): 12.7 ± 8.9%
- inhibition at 10 µM ([5]; read-out: Percent inhibition ±SEM (%) Dot blot (OC antibody)): 2.7 ± 9.32%
- Time spent on the rotarod (s ±SEM) 6 rpm ([6]; 30 mg kg^-1 IP): 60.0 s
- Time spent on the rotarod (s ±SEM) 18 rpm ([6]; 30 mg kg^-1 IP): 60.0 s
- Time spent on the rotarod (s ±SEM) 24 rpm ([6]; 30 mg kg^-1 IP): 60 s
- Time spent on the rotarod (s ±SEM) 6 rpm ([6]; 100 mg kg^-1 IP): 60.0 s
- Time spent on the rotarod (s ±SEM) 18 rpm ([6]; 100 mg kg^-1 IP): 53.3 ± 6.8 s
- Time spent on the rotarod (s ±SEM) 24 rpm ([6]; 100 mg kg^-1 IP): 52.3 ± 6.8 s
- impact on motor coordination ([6]; even at 100 mg kg^−1): did not induce motor deficits
- errors at the end of the acquisition phase (day 1) ([7]; scopolamine + 30 mg kg^−1): < 1 error
- errors in the last trial block of day two ([7]; scopolamine + 30 mg kg^−1 on day 1): < 1 error
- Papp A→B at 120 min, 100 µM [8]: 30 ± 10.7 ×10⁻⁶ cm/s
- possible metabolites identified with LC-HRMS [9]: N-debenzylated, demethylated, and a demethylated + glucoronide products
- protein bound ([10]; human blood plasma, equilibrium dialysis): 96%
- Protein Bound (%) 1st [10, 18]: 96.0%
- Protein Bound (%) 2nd [10, 18]: 95.3%
- Protein Bound (%) Mean [10, 18]: 96%
- recovery at 4 h, 10 µM ([10]; read-out: Recovery (%) 1st): 101%
- recovery at 4 h, 10 µM ([10]; read-out: Recovery (%) 2nd): 99%
- recovery at 4 h, 10 µM ([10]; read-out: Recovery (%) Mean): 100%
- distance travelled to reach the platform ([11]; day 3, scopolamine + 30 mg kg^−1): 5.38 m
- distance travelled to reach the platform ([11]; day 5, scopolamine + 30 mg kg^−1): 1.69 m
- Distance in goal quadrant (% ±SEM) [11, 19]: 45.35 ±2.6 F[2,25] = 0.2035; NS %
- Entries in zone NW (n ±SEM) [11, 19]: 7.3 ±0.7 F[2,25] = 14.59; p <0.0001 n
- Latency time (s ±SEM) [11, 19]: 1.2 ±0.4 F[2,25] = 1.792; NS s
- Number of NW zone crossings (n ±SEM) [11, 19]: 2.6 ±0.5 F[2,25] = 2.182; NS n
- Time in target (NW) quadrant (s ±SEM) [11, 19]: 29.3 ±1.5 F[2,25] = 0.8737; NS s
- Total distance covered (m ±SEM) [11, 19]: 11.5 ±0.6 F2,25] = 0.3439; NS m
- mean speed of swimming ([11]; scopolamine + compound 2 30 mg kg^−1 (vehicle 0.17)): 0.16 m s^−1
- half-life in human plasma ([12]; discussion): > 2 h
- Half-Life t1/2 (min) 1st ([12]; human plasma, 1 µM, 37 °C): 223.1 min
- Half-Life t1/2 (min) 2nd ([12]; human plasma, 1 µM, 37 °C): 206.7 min
- Half-Life t1/2 (min) Mean ([12]; human plasma, 1 µM, 37 °C): >120 min
- Aβ(1–42) aggregation inhibition ([13]; 10 μM): did not inhibit Aβ(1–42) aggregation
- inhibition at 10 µM ([13]; 10 μM compound, 1.5 μM Aβ1–42, read-out: Percent inhibition ±SEM (%) ThT): -4.89%
- half-life at 1 µM [14]: > 2 h
- step-through latency, retention trial ([15]; 10 mg kg^−1 IP before scopolamine 1 mg kg^−1): 70 s
- step-through latency, retention trial ([15]; 20 mg kg^−1 IP before scopolamine 1 mg kg^−1): 58 s
- step-through latency, retention trial ([15]; 30 mg kg^−1 IP before scopolamine 1 mg kg^−1): 102 s
- half-life at 1 µM [16]: 0.928 h
- Half-Life t1/2 (min) 2nd [17]: 51.7 min
- Half-Life t1/2 (min) Mean [17]: 54 min
- Half-Life t1/2 (min) 2rd ([17]; third replicate column): 55.6 min
